# According to patent US11203753B2, “Hepcidin antagonists for use in the treatment of inflammation” (INSERM (INSTITUT NATIONAL DE LA SANTE ET DE LA RECHERCHE …, priority 2015, dated 2021):
# T1: Cxcr2 (Mus musculus, UniProt P35343)
# T1 construct: Migration of WT bone marrow isolated neutrophils in response to hepcidin (1 μg/ml); endogenous in cells; host or cells: primary neutrophils isolated from bone marrow of WT mice (mixed C57BL6/129SV background)
# T1 sequence (P35343 1-359): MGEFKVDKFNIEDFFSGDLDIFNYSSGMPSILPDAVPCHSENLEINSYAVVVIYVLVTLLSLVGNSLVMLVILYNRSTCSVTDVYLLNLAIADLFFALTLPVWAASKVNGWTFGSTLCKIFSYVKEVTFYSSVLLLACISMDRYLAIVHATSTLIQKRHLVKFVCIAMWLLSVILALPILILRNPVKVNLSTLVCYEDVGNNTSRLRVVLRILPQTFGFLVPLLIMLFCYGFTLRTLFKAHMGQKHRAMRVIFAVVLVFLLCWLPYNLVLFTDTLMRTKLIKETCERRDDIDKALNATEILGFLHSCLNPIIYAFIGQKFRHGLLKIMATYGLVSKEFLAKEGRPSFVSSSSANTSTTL
# B1: flagellin: FLA-ST from Salmonella Typhimirium, agonist of TLR5 (protein, UniProt P06179 2-495, looked up)
# Flagellin: AQVINTNSLSLLTQNNLNKSQSALGTAIERLSSGLRINSAKDDAAGQAIANRFTANIKGLTQASRNANDGISIAQTTEGALNEINNNLQRVRELAVQSANSTNSQSDLDSIQAEITQRLNEIDRVSGQTQFNGVKVLAQDNTLTIQVGANDGETIDIDLKQINSQTLGLDTLNVQQKYKVSDTAATVTGYADTTIALDNSTFKASATGLGGTDQKIDGDLKFDDTTGKYYAKVTVTGGTGKDGYYEVSVDKTNGEVTLAGGATSPLTGGLPATATEDVKNVQVANADLTEAKAALTAAGVTGTASVVKMSYTDNNGKTIDGGLAVKVGDDYYSATQNKDGSISINTTKYTADDGTSKTALNKLGGADGKTEVVSIGGKTYAASKAEGHNFKAQPDLAEAAATTTENPLQKIDAALAQVDTLRSDLGAVQNRFNSAITNLGNTVNNLTSARSRIEDSDYATEVSNMSRAQILQQAGTSVLAQANQVPQNVLSLLR
# Tests used:
# Cxcr2 = biological target: T1, Cxcr2; assay: Neutrophil migration towards hepcidin in presence of Cxcr2 inhibitor; assay type: cell-based; details: hepcidin 1 μg/ml
# Procedure: Migration of WT bone marrow isolated neutrophils in response to hepcidin (1 μg/ml) in presence or not of the Cxcr2 inhibitor (sb225002, Sigma-Aldrich). n=3. mean+/−s.e.m.
# (§1) Neutrophil migration was assessed using transwell (3 μm; BD-Falcon) coated with 10 μg/ml fibronectin (# F1141, Sigma-Aldrich). The cells (5×10^5/well) were diluted in 700 μL DMEM+10% SVF and migration towards hepcidin (Peptide International) in the bottom well was allowed for 2 hours at 37° C. The resulting migrated cells recovered from the bottom well were counted using hemocytometer.
# macrophages [1] = assay: Inflammatory gene expression (Q-PCR) in macrophages incubated with hepcidin-25; assay type: cell-based, mouse
# Procedure: a, Flow cytometry analysis of neutrophils in lamina propria of WT and KO mice. Left: Representative experiment with Ly6G^+ Ly6C^low cells shown after gating on CD45^+CD11b^+ cells; Right: pool of four experiments (mean+/−s.e.m; *p<0.05). b, Migration of WT bone marrow isolated neutrophils in response to hepcidin-25. (3 experiments performed in triplicate; mean+/−s.e.m; *p<0.05). c, CXCL1, CXCL2, IL-1beta, iNOS mRNA levels in macrophages incubated for 1 or 3 hours with 1 μg/ml, 10 μg/ml Hepcidin-25 or PBS (control). d, Immunohistochemistry using anti-mouse iNOS antibody on intestine of WT and Hepc^Δint mice upon PBS or LPS injection.
# The gastrointestinal tract contains the largest reservoir of macrophages in the organism^17. Besides its proper chemoattractant property, the inventors hypothesized that hepcidin may influence the production of chemokines by the macrophages. Macrophages were incubated with hepcidin-25 at different time points (30 min, 1 h, 3 h, 24 h, 48 h).
# (§2) RNA extraction, reverse transcription, quantitative PCR and sequences of the primers used have been previously described^8. All samples were normalized to the threshold cycle value for cyclophilin-A.
# [2] = tested on: WT bone marrow isolated neutrophils; assay: Neutrophil migration assay (transwell) towards hepcidin; assay type: cell-based, mouse
# Procedure: Bone marrows from WT mice were flushed from femurs and tibias with PBS using a 25 G needle. Tissues were homogenized through a 18 G needle and the suspension was passed through 70 μm and 40 μm cell strainers. Cells were centrifuged at 400 g for 10 min and resuspended in cold MACS buffer (PBS, BSA 0.5%, EDTA 2 mM, pH 7.4). After counting, cells were incubated on ice with FcBlock™ for 10 min, anti-Ly6C for 15 min and anti-biotin antibody microbeads for 15 min, following the manufacturer's instructions. Cells were washed with MACS buffer and centrifuged at 400 g for 10 min. Neutrophils were immuno-magnetically separated following filtration of the cell suspension through an LS column (Miltenyi) according to manufacturer's instructions.
# as §1
# macrophages [3] = assay: CXCL1 and TNF-α protein accumulation by macrophages following hepcidin treatment; assay type: cell-based, mouse; details: at 7 hours
# Procedure: Kinetic response of macrophage-derived CXCL1 and TNF-α following hepcidin treatment was further determined. […] Massive protein accumulation of CXCL1 and TNF-α reached respectively 300 and 150 pg/ml at 7 hours (Data not shown). Hepcidin stimulated IL-1beta, IL-6 and iNOS expression with a maximal induction at 3 hours with 10 μg/ml hepcidin (FIG. 2c) while the peak of TNF-alpha and Cox-2 expression occurred after 1 hour of hepcidin treatment. AMPs, such as LL37, typically function in this high concentration range^18,19 to induce proinflammatory molecules^20,21. This allows the production of inflammatory mediators in pathological conditions where AMPs concentrations can reach high values^18,19 and not in healthy tissues where inflammatory damage might otherwise harm host cells.
# [4] = tested on: Caco-2 intestinal cell line; assay: Addition of synthetic mature hepcidin to Caco-2 intestinal cell line; assay type: cell-based; details: basolateral or apical side
# [5] = tested on: Raw 264.7 (ATCC TIB-71) murine macrophage cell line; assay: CXCL2 and TNF-α expression (Q-PCR) in serum starved Raw 264.7 macrophages with Hepc-25; assay type: cell-based
# Procedure: FIG. 9: Serum starvation enhances the proinflammatory action of Hepc-25 in macrophages. Expression by Q-PCR of CXCL2 and TNF-α in Raw 264.7 (ATCC® TIB-71™) murine macrophage cell line serum starved or not for 1 hour before the addition of 10 μg/ml of Hepc-25 (Peptide International) for an additional hour. N=3 per group; mean+/−s.e.m. Statistical analysis by a two-way analysis of variance (ANOVA) followed by a Bonferroni posttest. **p<0.01; ***p<0.001.
# Expression by Q-PCR of CXCL2 in Raw 264.7 (ATCC® TIB-71™) murine macrophage cell line serum starved for 1 hour or not before the addition of 1 or 10 μg/ml of Hepc-25 (Peptide International) for an additional hour. N=3 per group; mean+/−s.e.m. Statistical analysis by a two-way analysis of variance (ANOVA) followed by a Bonferroni posttest. **p<0.01; ****p<0.0001.
# hepcidin expression = assay: Hepcidin expression (Q-PCR) in mouse intestine and liver 7 h after ip injection of TLR agonists; assay type: in vivo; details: WT mice
# Procedure: Mice were ip injected with LPS (from E. coli O111:B4; 2 mg/kg), Zymosan A (from Saccharomyces cerevisiae, Sigma-Aldrich Z4250; 250 mg/kg), Poly:IC (Polyinosinic-polycytidylic acid sodium salt, Sigma-Aldrich P0913; 12.5 mg/kg), Flagellin (FLA-ST from Salmonella Typhimirium, InvivoGen, #12B06-MM; 1.5 mg/kg) or with a sterile saline solution (PBS) and sacrificed 7 hours later.
# as §2
# NF-kB pathway = assay: Hepcidin-induced expression of CXCL1 and TNF-α in macrophages with pathway inhibitors; assay type: cell-based, mouse
# Description: Moreover, MyD88, a canonical adaptor for inflammatory signaling pathway, but not TLR4, was required for the hepcidin-triggered induction of CXCL1 and TNF-α. Indeed, macrophages isolated from TLR4−/− but not MyD88−/− mice were still able to mount an inflammatory response after addition of hepcidin.
molecule,measurement,setting,value
O=C(Nc1ccc([N+](=O)[O-])cc1O)Nc1ccccc1Br [sb225002],neutrophil migration towards hepcidin,Cxcr2,prevents neutrophil migration
hepcidin: synthetic mature 25 amino acid hepcidin peptide (Peptide International),expression of the iron-responsive gene TfR1,macrophages [1],unchanged
same,time of peak of TNF-alpha and Cox-2 expression,macrophages [1],1 h
same,time of peak of transient CXCL1 and TNF-α mRNA induction,macrophages [1],1 h
same,expression of CXCL-1 and CXCL2,"macrophages [1]; 1 μg/ml hepcidin, 1 hour",slightly increased
same,"time of maximal induction of IL-1beta, IL-6 and iNOS expression",macrophages [1]; 10 μg/ml hepcidin,3 h
same,expression of CXCL-1 and CXCL2,"macrophages [1]; 10 μg/ml hepcidin, 1 hour",maximally induced
same,"fold change of genes statistically induced (TNF-α, CXCL1, CXCL2, NF-kappa-B inhibitor zeta, Mir-146)",macrophages [1]; 1 hour,> 2
same,migration of neutrophils,[2]; bimodal dose response,induced a dose-dependent migration of neutrophils
same,dose of peak response of neutrophil migration,[2]; migration 2 hours at 37° C.,0.1 µg/mL
same,CXCL1 protein accumulation,macrophages [3],300 pg/mL
same,TNF-α protein accumulation,macrophages [3],150 pg/mL
same,iNOS expression,[4],did not induce
same,expression of Cxcl2,"[5]; 1 μg/ml, serum starvation 1 hour, 1 additional hour",robust expression
same,stimulatory effect on macrophage-mediated cytokine release,[5]; serum-free conditions versus not starved,clearly enhanced
Polyinosinic-polycytidylic acid sodium salt [poly:IC],hepcidin expression in the intestine,hepcidin expression,induced
CC(C)(C)c1ccc(S(=O)(=O)/C=C/C#N)cc1 [BAY 7085],hepcidin-induced expression of CXCL1 and TNF-α,NF-kB pathway,strongly blunted
Cc1ccc(S(=O)(=O)/C=C/C#N)cc1 [BAY 7082],hepcidin-induced expression of CXCL1 and TNF-α,NF-kB pathway,strongly blunted
B1,hepcidin expression in the intestine,hepcidin expression,induced
